The structures appear in SMILES notation. Activity calls are given as the source filed them.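 Rule for the calls: active = compounds raising the signal whose fitted half-maximal concentration is at or below their top tested dose (cut at about 25 µM in these data); inconclusive = flat fit at 30 to 70% activity, or a poor fit; inactive = the rest.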

In general, AC50 refers to the midpoint of the concentration-response curve, whichever way the signal moves.

The test deals with INS-1E rat beta cells, no cytokines, CellTiter-Glo ATP, 48 h. Description: ATP level change in INS-1E without cytokines, dose response, counter-screen for beta-cell apoptosis protection project, INS-1E rat cells, ATP luminescence, cherry pick (AID 463229). (In general: The purpose of a counterscreen is to sort out artefacts and off-target activity.)
`CN(C)CCCN(C(=O)COc1ccc(Cl)cc1)c1nc2cc3c(cc2s1)OCO3`: the AC50 was 15.6 µM.

For `C/C(=N/NC(=O)c1cccs1)c1c(C)[nH]n(-c2nc3ccccc3s2)c1=O`, the AC50 was 16.2 µM.

On to `COc1ccc(-n2c(=S)[nH]c3cc(C(=O)Nc4ccccc4OC)ccc3c2=O)cc1`, for which the AC50 was 8.24 µM.

Take `CCN(CC)S(=O)(=O)c1ccc(Oc2ccc(S(=O)(=O)N(CC)CC)cc2)cc1`: the AC50 was 2.88 µM.

For `CCCCC(=O)NC(c1ccccc1OC)c1ccc2cccnc2c1O` (configuration not stated), the AC50 was 2.13 µM.

As to `COc1cccc(/C=N/NC(=O)c2c(C)nc3ccc(Br)cn23)c1O`, the AC50 was 3.16 µM.

Consider `COc1ccc(CNCCC(c2ccccc2)c2ccc3c(c2)OCO3)cc1` (configuration not stated), for which the AC50 is 15.2 µM.

For `CCN(CC)S(=O)(=O)c1cccc(NC(=O)CNc2cccc(S(=O)(=O)N3CCCC3)c2)c1`, the AC50 is 6.2 µM.

For the compound `CC(=O)NC(C)c1cc(Cl)c2cccnc2c1O` (configuration not stated), the AC50 was 10.7 µM.

`CCN(CC)C(=O)c1cc([N+](=O)[O-])cc2c1-c1ccc([N+](=O)[O-])cc1C2=C(C#N)C#N`: the AC50 was 9.06 µM.

As to `c1ccc(-c2cccc(-c3ccccn3)n2)nc1`, the concentration at half-maximal activity (AC50) was 1.24 µM.

For `Cc1ccc(F)c([C@H]2C3C=CCC(c4ccccc4)C3C(=O)N2Cc2ccccc2)c1` (some centres not stated), the AC50 was 14.4 µM.

Turning to `COC1=CC(=O)[C@]2(C=C1OC)OC[C@@H]1Oc3c(ccc4c3C=CC(C)(C)O4)C(=O)[C@@H]12`, the AC50 is 1.07 µM.

In the case of `CCN1CCN(Cc2ccc(NC(=O)c3cc(NC(=O)c4cnn(-c5ccccc5)c4N)cc(OC)c3)cc2C(F)(F)F)CC1`, the AC50 was 15.3 µM.

For `CCCCCCCCCCOC(=O)Cn1c(COc2ccccc2)[n+](C)c2ccccc21`, the AC50 is 4.25 µM.

Regarding `CN(C)S(=O)(=O)c1ccc(Nc2nc(C3CC3)nc3c2nnn3Cc2ccccc2Cl)cc1`, the AC50 is 7 µM.

Regarding `CC1=NNC(=O)/C1=C\c1cn(-c2ccccc2)nc1-c1ccc(Cl)cc1`, the AC50 was 10.9 µM.

Regarding `Cc1cc(C)c2c(ccc3cccc[n+]32)c1`, the AC50 is 6.45 µM.

For the compound `Cc1cc(N/N=C/c2ccc(O)cc2O)nc(-c2ccccc2O)n1`, the AC50 is 7.47 µM.

As for `CCn1c(C)nc2cc(-c3nnc(-c4c(-c5ccccc5)noc4C)o3)ccc21`, the AC50 was 5.18 µM.

For `Oc1ccc2ccccc2c1N=Nc1nccs1`, the AC50 was 6.54 µM.

Turning to `Cc1cccc(/C=N\NC(=O)c2ccc(Cl)cc2)c1O`, the AC50 is 4.8 µM.

As for `COc1ccc(C)cc1NS(=O)(=O)c1ccc(NC(=O)CN(c2cc([N+](=O)[O-])ccc2C)S(C)(=O)=O)cc1`, the AC50 was 1.11 µM.

For the compound `CCN1C/C(=C/c2cccc([N+](=O)[O-])c2)C(=O)/C(=C/c2cccc([N+](=O)[O-])c2)C1`, the AC50 is 2.39 µM.

Turning to `O=C(c1cc(COc2cccc(C(F)(F)F)c2)on1)N1CCC(c2ccncc2)CC1`, the AC50 is 7.14 µM.

On to `CCC(=O)NC(c1ccc(C)cc1)c1cc([N+](=O)[O-])c2cccnc2c1O` (configuration not stated), for which the AC50 was 13.8 µM.

In the case of `C=C1C(O)[C@@H]2O[C@]3(CC[C@H](/C=C/C(C)[C@@H]4CC(C)=CC5(O[C@H](C[C@@](C)(O)CO)CCC5O)O4)O3)CC[C@H]2O[C@@H]1C(O)CC(C)[C@H]1OC2(CCCCO2)CCC1C` (some centres not stated), the AC50 is 10.7 µM.

`C/C(=N/Nc1nc(-c2ccccc2)cc(-c2ccc(F)cc2)n1)c1cccc(N)c1`: the AC50 was 15.1 µM.

As to `COc1ccccc1N1CCN(c2ncc(C(=O)N3CCN(c4cccc(Cl)c4)CC3)c3ccccc23)CC1`, the AC50 is 4.69 µM.

As for `O=C(Nc1cc(Sc2ccccn2)cc([N+](=O)[O-])c1)c1cccc(F)c1`, the AC50 is 8.51 µM.

With `CCn1c(C)c(C)c2cc(C(=O)N3CCc4ccccc4C3)ccc21`, the AC50 is 3.14 µM.

For `CCCCCCCC[n+]1cccc2c3ccccc3ccc21`, the AC50 is 0.273 µM.

As for `C=C1CCc2c([nH]c3ccc(OCC(C)C)cc23)C1=O`, the AC50 was 7.5 µM.

Consider `Cn1nccc1C(=O)NC1CCCc2c1cnn2-c1ccc(F)cc1F` (configuration not stated), for which the AC50 is 2.48 µM.

Regarding `Cc1ccc(/C=C/C(=O)c2ccc([N+](=O)[O-])o2)cc1`, the AC50 is 7.11 µM.

As for `NC(=O)c1c(-c2ccc(Cl)cc2Cl)csc1NC(=O)Cc1ccccc1`, the AC50 is 4.08 µM.

Take `CC(Oc1cccc(Cl)c1)C(=O)Nc1cc(S(=O)(=O)N2CCOCC2)ccc1N1CCCCC1` (configuration not stated): the AC50 was 5.68 µM.

`COc1ccc(Cn2c(SCc3ccccc3C)nc3cc(OC)c(OC)cc3c2=N)cc1`: the AC50 is 7.93 µM.

As to `COC(=O)[C@@H](Cc1ccccc1)N(Cc1ccccc1)S(=O)(=O)N(Cc1ccccc1)[C@H](Cc1ccccc1)C(=O)OC`, the AC50 is 4.27 µM.

As to `CC1=C(C)/C(=N\OS(=O)(=O)c2ccccc2)C=CC1=O`, the AC50 was 4.13 µM.

Turning to `N=c1c2c(n(Cc3ccc(Br)cc3)c3c1CCC3)CCCC2`, the AC50 was 3.04 µM.

Take `C/C(=N\NC(=O)COc1ccccc1-c1ccccc1)c1ccccn1`: the AC50 was 6.13 µM.

`COc1ccc(C2=NNC(=Nc3cc(S(=O)(=O)N(C)C)ccc3C)SC2)c(OC)c1`: the AC50 is 3.06 µM.

On to `CN(C)c1cc[n+](Cc2c(Cl)cccc2Cl)cc1`, for which the AC50 was 6.3 µM.

For the compound `Cc1[nH]nc2nc(SCC(=O)NCCC3=CCCCC3)n(-c3ccc(Br)cc3)c(=N)c12`, the AC50 is 6.36 µM.

In the case of `Cc1c(/C=N/Nc2nc3ccccc3[nH]2)c2ccccc2n1C`, the AC50 is 6.36 µM.

For the compound `CCc1ccc(Nc2n[n+](-c3ccccc3)c(-c3c(Cl)cccc3Cl)s2)cc1`, the half-maximal activity concentration (AC50) was 4.08 µM.

Take `O=C(c1cc(-c2ccccc2Cl)nc2ccccc12)N1CCN(c2ccccn2)CC1`: the AC50 was 4.44 µM.

Consider `COc1cc(CC(=O)Nc2nc(-c3ccc(F)c(F)c3)cs2)cc(OC)c1OC`, for which the AC50 was 7.17 µM.

In the case of `Cc1[nH]c(N=Nc2ccccc2)nc1N=Nc1ccccc1`, the AC50 is 8.16 µM.

For `N/C(=N\OC(=O)c1cccc(Cn2cc(C(F)(F)F)ccc2=O)c1)c1ccccc1`, the AC50 is 7.71 µM.

Regarding `CCOc1ccc(S(=O)(=O)N2CCCCC2)cc1NC(=O)CN1CCCC1c1cccs1` (configuration not stated), the AC50 is 5.24 µM.

On to `COc1cc(NC(=O)c2cc3ccccc3cc2O)c(OC)cc1Cl`, for which the AC50 is 4.68 µM.

With `O=c1cc(CSc2ccc(Cl)cc2)nc(-c2ccccn2)[nH]1`, the AC50 is 11.6 µM.

Regarding `COc1ccc(OC)c2c1C(=O)C(Cl)=C(Cl)C2=O`, the AC50 was 8.18 µM.

As for `CCOC(=O)N1CCN(C(=O)CSCC(=O)Nc2nc(-c3ccc(-c4ccccc4)cc3)cs2)CC1`, the AC50 is 4.49 µM.

Take `Cc1cc2nc(-c3ccc(NC(=O)c4cccnc4)cc3)oc2cc1C`: the AC50 was 9.26 µM.

Regarding `O=C(NCC(c1ccco1)N1CCCC1)c1ccc(Cl)c(S(=O)(=O)N2CCc3ccccc32)c1` (configuration not stated), the half-maximal activity concentration (AC50) is 7.47 µM.

For the compound `COC(=O)c1ccc(NC(=O)c2cccnc2)cc1`, the AC50 is 7.58 µM.

For `COc1ccc([C@H]2CC(=O)C=C(c3ccnc4ccc(Cl)cc34)C2)cc1`, the AC50 is 6.01 µM.

As to `CC(=O)c1c(C)oc2ccc(N(C(C)=O)S(=O)(=O)c3cccc4cccnc34)cc12`, the AC50 was 7.79 µM.

With `CCC1=NN(C(=O)c2ccccc2O)C(O)(c2ccccc2)C1` (configuration not stated), the AC50 was 15.6 µM.

`CCOc1ccc(N=Cc2c(C)[nH]n(-c3nc4ccccc4[nH]3)c2=O)cc1`: the AC50 was 2.83 µM.

As for `COc1cc(-c2nc3ccc(C)cn3c2NCc2ccccc2)ccc1SC1CCCCC1`, the AC50 is 5.49 µM.

For the compound `COCCN(C(=O)COC(=O)C1CCC(C(C)(C)C)CC1)c1c(N)n(Cc2ccccc2)c(=O)[nH]c1=O` (configuration not stated), the AC50 was 2.17 µM.

As for `C=C1C(=O)O[C@@H]2C[C@@H](C)[C@@H]3C=CC(=O)[C@@]3(C)[C@@H](O)[C@H]12`, the AC50 is 2.02 µM.

For the compound `CCCCNc1c(-c2ccc(-c3cccc(Cl)c3)cc2)nc2ccccn12`, the AC50 is 5.83 µM.

As for `O=C(/C=C/NNC(=O)c1ccccc1)c1ccc([N+](=O)[O-])cc1`, the AC50 is 5.76 µM.

Take `c1ccc2c(NCCCN3CCOCC3)c3ccccc3nc2c1`: the AC50 is 6.37 µM.

As to `CCCCC(=O)NC(c1cccs1)c1cc(Cl)c2cccnc2c1O` (configuration not stated), the AC50 is 5.89 µM.

Turning to `Cc1ccc(C)c(-c2csc(NC(=O)C3=COCCO3)n2)c1`, the AC50 was 7.67 µM.

For the compound `Oc1ccc(-[n+]2c(-c3ccccc3)cc(-c3ccccc3)cc2-c2ccccc2)cc1`, the AC50 is 3.96 µM.

For the compound `Cc1c(C(=O)N(Cc2ccccc2)C(C)C)oc2ccc(S(=O)(=O)N3CCOCC3)cc12`, the AC50 was > 26 µM (inactive).

For `CCC(=O)NC(c1cccs1)c1cc(Cl)c2cccnc2c1O` (configuration not stated), the AC50 is 5.49 µM.

Consider `CC(C)(C)OC(=O)NCCCCCc1cn([C@@H](CO)C(=O)NCCCCCCCCCCC(=O)N2CCN(C(=O)OC(C)(C)C)CC2)nn1`, for which the AC50 is 7.05 µM.

On to `COc1ccc(C(=O)C/C(=C\C(=O)c2ccc(C)cc2)c2ccccc2)cc1`, for which the concentration at half-maximal activity (AC50) is 7.67 µM.

`C=CCn1cc(/C=C/c2cc[n+](C)cc2)c2ccccc21`: the AC50 was 4.63 µM.

For the compound `CCOc1ccc(-c2c[n+]3c(n2-c2ccccc2)CCCCC3)cc1`, the AC50 is 0.982 µM.

In the case of `O=C(N/N=C\c1ccc([N+](=O)[O-])s1)c1cncc(Br)c1`, the AC50 was 6.53 µM.

Regarding `COc1ccccc1/C=C/CN1CCC(n2nccc2NC(=O)CCc2ccccc2)CC1`, the AC50 was 8.85 µM.

In the case of `Cc1[nH]n(-c2ccccc2)c(=O)c1N=Nc1c(O)cc(S(=O)(=O)N(C)C)c2ccccc12`, the AC50 was 3.72 µM.

Consider `CCCCOc1ccc(C(=O)NNC(=S)NC(=O)CC)cc1`, for which the AC50 was 14.3 µM.

In the case of `Clc1cccc(N=C2NN=C(c3ccc4c(c3)OCCO4)CS2)c1`, the AC50 is 1.76 µM.

On to `COc1ccc(OC)c2[nH]c(C(=O)N/N=C/c3ccccc3O)cc12`, for which the AC50 is 7.58 µM.

Take `CCOc1ccccc1NC(=O)c1nc(S(=O)(=O)Cc2cccc(C)c2)ncc1Cl`: the AC50 is 7.91 µM.

On to `CCC(C)Sc1ccc(-c2nc3ccc(C)cn3c2NCc2ccccc2)cc1OC` (configuration not stated), for which the AC50 was 6.46 µM.

As to `COc1ccc(C)cc1Nc1n[n+](-c2ccccc2)c(-c2c(Cl)cccc2Cl)s1`, the concentration at half-maximal activity (AC50) is 4.15 µM.

Turning to `O=C(N/N=C/c1ccccc1O)C1CC(=O)N(c2ccc(Cl)cc2)C1` (configuration not stated), the AC50 is 17.7 µM.

As for `CCSCCc1nnc(NC(=O)Nc2cccc(C(F)(F)F)c2)s1`, the AC50 is 4.25 µM.

In the case of `CCCCC(=O)N1C/C=C\C(c2ccc(OC)cc2)N(Cc2ccc(F)cc2)C(=O)[C@H]1Cc1ccccc1` (some centres not stated), the AC50 was 7.74 µM.

Take `CCN(CC)C(=O)c1ccc(S(=O)(=O)N2CCC(c3nc4ccccc4s3)CC2)cc1`: the AC50 was 7.7 µM.

On to `O=C(Nc1cccc(Cl)c1)Nc1nnc(-c2ccncc2)s1`, for which the AC50 is 6.36 µM.

(Values after PubChem BioAssay AID463229 (Broad Institute, 2010).)
